Source: patent US20220378802A1, “TREATMENT OF ALCOHOLIC HEPATITIS” (Durect Corporation, priority 2019, published 2022)
Entries after “also recorded” stand apart in the source; their conditions may differ. Where two headings read alike, the source gives them in different places.

Assay: Pharmacokinetics of 25HC3S in alcoholic hepatitis patients (Phase 2a, IV infusion)
Type: in vivo, human
Settings: for PK parameters, moderate versus severe AH groups: comparison at the same dose; for half-life / clearance / Tmax / AUC(0-inf) / Cmax: human, plasma
Protocol: All patients received IV infused 25HC3S (at 30, 90, or 150 mg) on Day 1 and Day 4 (if still hospitalized), and were followed for 28-days. The final enrollment was 19 patients comprised of: 8 patients (4 moderate and 4 severe) dosed at 30 mg, 7 patients (3 moderate and 4 severe) dosed at 90 mg, and 4 patients (4 severe) dosed at 150 mg. • Study Drug A 25HC3S sodium salt solution contained: • 30 mg/mL 25HC3S sodium salt; • 240 mg/mL hydroxypropyl-beta-cyclodextrin; and • 50 mmole phosphate buffer • The 25HC3S sodium salt solution was diluted in 100 mL 5% dextrose or 0.9% sodium chloride infusion solution: • Dose 1: 30 mg of 25HC3S sodium salt in 100 mL 5% dextrose or 0.9% sodium chloride • Dose 2: 90 mg of 25HC3S sodium salt in 100 mL 5% dextrose or 0.9% sodium chloride • Dose 3: 150 mg of 25HC3S sodium salt in 100 mL 5% dextrose or 0.9% sodium chloride • 25HC3S sodium salt was administered by slow intravenous infusion over 2 hrs (50 mL/h) until the entire dose is given at Day 1 and Day 4. If a patient met the hospital discharge criteria prior to the second dose, the patient received only one dose instead of two doses. • Study Procedure The study was conducted in two parts. Part A included patients with MELD scores of 11-20 (moderate AH patients), and Part B included patients with MELD of scores 21-30. The doses of 25HC3S sodium salt administered were 30 mg and 90 mg for Part A and 30 mg, 90 mg and 150 mg for Part B, with 4 patients per dose group per Part (except for only 3 patients in the 90 mg cohort of Part A). All patients were followed to Day 28. • The study started in 4 moderate AH patients (Part A) at 30 mg dose level. After completing the dosing, a Dose Escalation Committee (DEC) reviewed safety, tolerability and pharmacokinetic (PK) data from all 4 patients and determined that it was safe to move forward to dose 4 severe AH patients (Part B) at the same dose level, 30 mg, as well as escalating the dose level to 90 mg in moderate patients (Part A). The same dose escalation procedure was then conducted in Part B until all 4 patients received 150 mg doses. • A flow diagram of the study is depicted in FIG. 2. Each dose cohort enrolled up to 4 subjects. Study subjects received up to 2 doses of 25HC3S sodium salt. The first dose was administered on Day 1 and, if still hospitalized, the second dose was administered on Day 4. A pharmacokinetic (PK) sample was collected at: Time 0 (pre-dose), 1 hour post-dose initiation, 2 hours (end of infusion), 3 hours post-dose initiation, 4 hours post-dose initiation, 8 hours post-dose initiation, 12 hours post-dose initiation, 24-hours post-dose initiation and 50 hours post-dose initiation. • Evaluation: Assessment of Pharmacodynamic (PD) Signals: • Change in Lille score, MELD score, biochemistry (such as bilirubin) • Method and Timing • Lille score was calculated at Day 7 • MELD score was calculated at Screening, Day 1 (pre-dose), Day 7 and Day 28 • Biochemistry and all safety lab parameters were collected at Screening, Day 1 and Day 4 at pre-dose, Day 1 and Day 4 at 12 hrs after dose completion/end of infusion, Day 2, Day 7, Day 28, and if hospitalized on Days 3, 4, 5, and 6. • Assessment of Safety Signals: • Safety was determined based on clinical and laboratory monitoring. • Assessment of PK: • Plasma concentration data of 25HC3S from each patient were used to calculate relevant PK parameters determined using a standard linear/log-trapezoidal rule non-compartmental method with an appropriate PK data analysis program. • The time points for PK sample collection were (after Dose 1 only): 0 (pre-dose), 1 hr post-dose initiation, 2 hrs (end of infusion), 3, 4, 8, 12, 24 hrs post-dose

[1] = AH vs healthy subjects, 150 mg, ↑
[2] = AH vs healthy subjects, 150 mg, ↓
[3] = iv, 30 mg, Moderate AH, cohort 1A, 30 mg IV infusion, N=3
[4] = iv, 30 mg, Severe AH, cohort 1B, 30 mg IV infusion, N=4
[5] = iv, 90 mg, Moderate AH, cohort 2A, 90 mg IV infusion, N=3
[6] = iv, 90 mg, Severe AH, cohort 2B, 90 mg IV infusion, N=4
[7] = iv, 150 mg, Severe AH, cohort 3B, 150 mg IV infusion, N=4
[8] = same dose level, single dose of 150 mg

C[C@H](CCCC(C)(C)O)[C@H]1CC[C@H]2[C@@H]3CC=C4C[C@@H](OS(=O)(=O)O)CC[C@]4(C)[C@H]3CC[C@]12C [25HC3S, 5-cholesten-3,25-diol, 3-sulfate]
drug exposure (AUC and Cmax) versus dose (AH patients, 30, 90, 150 mg): dose proportional
Time to maximum drug concentrations (Tmax) (AH patients, 2 hour IV infusion): at the end of 2 hour infusion
Fold Change in PK: AUCinf [1]: ↑ ~5×
Fold Change in PK: Cmax [1]: ↑ 2×
Fold Change in PK: T½ [1]: ↑ 2×
Fold Change in PK: CL [2]: ↓ 0.25×
Fold Change in PK: V [2]: ↓ 0.5×
V (Moderate AH, cohort 1A, 30 mg IV infusion, N=3): 24.8 (1.6) L
V (Moderate AH, cohort 2A, 90 mg IV infusion, N=3): 25.8 (10.5) L
V (Severe AH, cohort 1B, 30 mg IV infusion, N=4): 26.1 (4.9) L
V (Severe AH, cohort 2B, 90 mg IV infusion, N=4): 35.3 (10.8) L
V (Severe AH, cohort 3B, 150 mg IV infusion, N=4): 27.8 (5.9) L
PK parameters, moderate versus severe AH groups: uninfluenced by the severity of the disease; also recorded: similar
PK parameters, moderate versus severe AH groups (listed as 25HC3S sodium): similar
systemic clearance, fold lower in AH patients compared to healthy subjects (for a given dose): about 5 fold
decrease of clearance in AH patients compared to healthy subjects (healthy subjects from an earlier study): 80%
half-life (intravenous, AH patients, range over groups, read-out: half-life (t1/2)): 4 to 6 h
clearance (intravenous, AH patients, read-out: Mean clearance): 83.3 to 117 mL/min
Tmax (iv, 30 mg, Moderate AH, cohort 1A, 30 mg IV infusion over 2 h, after Dose 1, N=3): 2.2 h
AUC(0-inf) [3]: 6540 ng·h/mL
Cmax [3]: 1280 ng/mL
clearance (iv, 30 mg, Moderate AH, cohort 1A, 30 mg IV infusion, N=3, read-out: CL (converted)): 98.3 mL/min
half-life (iv, 30 mg, Moderate AH, cohort 1A, 30 mg IV infusion, N=3, read-out: T½ (converted)): 3.7 h
AUC(0-inf) [4]: 7720 ng·h/mL
Cmax [4]: 1340 ng/mL
Tmax [4]: 1.8 h
clearance (iv, 30 mg, Severe AH, cohort 1B, 30 mg IV infusion, N=4, read-out: CL (converted)): 68.3 mL/min
half-life (iv, 30 mg, Severe AH, cohort 1B, 30 mg IV infusion, N=4, read-out: T½ (converted)): 1.8 h
AUC(0-inf) [5]: 14300 ng·h/mL
Cmax [5]: 3630 ng/mL
Tmax [5]: 2 h
clearance (iv, 90 mg, Moderate AH, cohort 2A, 90 mg IV infusion, N=3, read-out: CL (converted)): 110 mL/min
half-life (iv, 90 mg, Moderate AH, cohort 2A, 90 mg IV infusion, N=3, read-out: T½ (converted)): 2.7 h
AUC(0-inf) [6]: 20400 ng·h/mL
Cmax [6]: 3290 ng/mL
Tmax [6]: 2.3 h
clearance (iv, 90 mg, Severe AH, cohort 2B, 90 mg IV infusion, N=4, read-out: CL (converted)): 91.7 mL/min
half-life (iv, 90 mg, Severe AH, cohort 2B, 90 mg IV infusion, N=4, read-out: T½ (converted)): 5.1 h
AUC(0-inf) [7]: 27100 ng·h/mL
Cmax [7]: 6820 ng/mL
Tmax [7]: 2.1 h
clearance (iv, 150 mg, Severe AH, cohort 3B, 150 mg IV infusion, N=4, read-out: CL (converted)): 96.7 mL/min
half-life (iv, 150 mg, Severe AH, cohort 3B, 150 mg IV infusion, N=4, read-out: T½ (converted)): 3.4 h
increase in AUC in AH patients compared to healthy subjects [8]: about 5 fold
increase in Cmax in AH patients compared to healthy subjects [8]: 2 fold
